What was measured:
[1] = system: AsPC-1 cell-derived xenograft; assay: AsPC-1 cell-derived xenograft mice model, in vivo efficacy; design: species or system BALB/C nude mice; conditions: GCTB 50 mg/kg intraperitoneal once a week, 3 weeks; vs vehicle group
Protocol: Synthetic compound was administered as a suspension or solution in the saline with 5% DMSO and 5% Solutol. GCTB was dissolved in saline. All of the experiments were approved by the Institutional Animal Care and Use Committee of Institute of Medicinal Biotechnology. All experiments were carried out under ethics committee–approved protocols and in compliance with the guidelines for the care of laboratory animals of Institute of Medicinal Biotechnology, CAMS.
AsPC-1 (5 × 10^7) cells were injected subcutaneously into 5-week-old female BALB/C nude mice (Beijing Huafukang Bioscience CO. Inc, Beijing, China). After two weeks, mice were omogenizamised and treated with vehicle, gemcitabine (GCTB), or test compound. Blank solvent and test compound was administered by oral gavage (10 ml/kg) with once daily of five days and followed by 2 days off in each week, GCTB was given once a week by 50 mg/kg intraperitoneal injection. Mice were inspected daily for clinical signs, both tumour diameters and body weight were determined 3 times weekly. Tumour volumes were calculated according to the formula “tumor volume (V) = length × width^2/2”. Median TGI values were calculated as follows: TGI = 100 × [1-(Vtreated group at day20-Vtreated group at day1)/(Vvehicle group at day20-Vvehicle group at day1)]. Data were plotted as average with SD in the graphical representation of tumour growth. The p values obtained from the two-way ANOVA analysis. Meanwhile, main organs of mice were collected, formalin-fixed and paraffin-embedded for pathological analysis by H&E dyeing. For drug concentration determination, blood and tumour tissues were collected at indicated time after single administration. Standard curve of test compound was established in the acquisition mode of SIM using a SHIMADZU LC-MS instrument. […] After centrifugation at 10 × 10^3 for 5 min, the supernatant was injected directedly into LC-MS instrument for quantification of drug concentration. […] After centrifugation under same condition as plasma samples, supernatant was separated and injected into LC-MS for quantification.

[2] = system: AsPC-1; assay: MTT proliferation assay in AsPC-1 cells; assay type: cell-based; conditions: Homo sapiens, ASPC1; 72 h drug exposure
Protocol: (§1) The human pancreatic carcinoma MIA PaCa-2 was purchased from China Centre for Type Culture Collection, AsPC-1 and BxPC-3 cell Lines were purchased from Cell Centre of the Institute of Basic Medical Sciences, Chinese Academy of Medical Sciences and Peking Union Medical College. PANC-1 was kindly provided by Nankai Hospital (Tianjin, China). These cancer cell lines were cultured according to the manufacturer’s instruction.
(§2) Cells were planted in 96-well plates at a density of 3000–4000 cells per well and incubated at 37 °C in a humidified CO2 incubator for 24 h. Then 3-fold diluted concentrations of tested compound were added respectively which was dissolved by DMSO in the ratio of 1:1000. After indicated incubation period, MTT was added to each well and incubated for 4 h at 37 °C. Then, the supernatant was discarded gently, and the precipitate was dissolved in 100 µL of DMSO in each well. The absorbance (A) at 570 nm was detected with a microplate reader (Multiskan MK3; Thermo Fisher Scientific, MA, USA). Vehicle-treated cells were served as the control for the calculation of relative cell viability (%) of treated group at single concentration. IC50 value was calculated directly from the inhibition curve of serial dilution of test compound and was expressed as mean ± SD using the SPSS statistical software (SPSS17.0 Inc., Chicago, IL, USA).

[3] = Body weight and H&E pathology of main organs in xenograft mice; assay type: in vivo, BALB/C nude mice; conditions: after 3-week treatment
Protocol: AsPC-1 (5 × 10^7) cells were injected subcutaneously into 5-week-old female BALB/C nude mice (Beijing Huafukang Bioscience CO. Inc, Beijing, China). After two weeks, mice were omogenizamised and treated with vehicle, gemcitabine (GCTB), or test compound. Blank solvent and test compound was administered by oral gavage (10 ml/kg) with once daily of five days and followed by 2 days off in each week, GCTB was given once a week by 50 mg/kg intraperitoneal injection. Mice were inspected daily for clinical signs, both tumour diameters and body weight were determined 3 times weekly. Tumour volumes were calculated according to the formula “tumor volume (V) = length × width^2/2”. Median TGI values were calculated as follows: TGI = 100 × [1-(Vtreated group at day20-Vtreated group at day1)/(Vvehicle group at day20-Vvehicle group at day1)]. Data were plotted as average with SD in the graphical representation of tumour growth. The p values obtained from the two-way ANOVA analysis. Meanwhile, main organs of mice were collected, formalin-fixed and paraffin-embedded for pathological analysis by H&E dyeing. For drug concentration determination, blood and tumour tissues were collected at indicated time after single administration. Standard curve of test compound was established in the acquisition mode of SIM using a SHIMADZU LC-MS instrument. Blood kept in anticoagulant tube coated with heparin sodium was centrifuged to provide the supernatant, which was followed by added with 3-fold acetonitrile to precipitate plasma protein. After centrifugation at 10 × 10^3 for 5 min, the supernatant was injected directedly into LC-MS instrument for quantification of drug concentration. As for tumour tissues, omogenizationation (Precellys Evolution) was done after weighed accurately and added with 3-fold saline. After centrifugation under same condition as plasma samples, supernatant was separated and injected into LC-MS for quantification.

[4] = system: BxPC-3; assay: MTT proliferation assay in BxPC-3 cells; assay type: cell-based; conditions: Homo sapiens, 72 h drug exposure
Protocol: as §1, §2

[5] = system: PANC-1; assay: MTT proliferation assay in PANC-1 cells; assay type: cell-based; conditions: Homo sapiens, 72 h drug exposure
Protocol: as §1, §2

[6] = system: MIA PaCa-2 cells; assay: MTT proliferation assay in MIA PaCa-2 cells; assay type: cell-based, human; conditions: Homo sapiens, MIA PaCa-2, 72 h, 72 h drug exposure
Protocol: as §1
as §2, with “Then” for “Cells were planted in 96-well plates at a density of 3000–4000 cells per well and incubated at 37 °C in a humidified CO2 incubator for 24 h. Then”

[7] = target: CDK5 (Homo sapiens, UniProt Q00535); assay: CDK kinase screening at 1 μM, CDK5; assay type: biochemical; conditions: read-out: Inhibitory rate at 1μM: CDK5
Chain of CDK5 (Q00535 whole entry): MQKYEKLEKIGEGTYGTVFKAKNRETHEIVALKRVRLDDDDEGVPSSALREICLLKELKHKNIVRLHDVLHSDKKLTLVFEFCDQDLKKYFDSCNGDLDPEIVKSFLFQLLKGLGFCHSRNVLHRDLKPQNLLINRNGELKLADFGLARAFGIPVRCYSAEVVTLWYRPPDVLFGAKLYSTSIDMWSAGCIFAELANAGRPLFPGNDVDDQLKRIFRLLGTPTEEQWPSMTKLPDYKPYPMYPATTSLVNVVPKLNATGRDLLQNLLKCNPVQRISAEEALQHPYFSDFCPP
Chain of CDK5 (Q15078 99-307 partner limits assumed): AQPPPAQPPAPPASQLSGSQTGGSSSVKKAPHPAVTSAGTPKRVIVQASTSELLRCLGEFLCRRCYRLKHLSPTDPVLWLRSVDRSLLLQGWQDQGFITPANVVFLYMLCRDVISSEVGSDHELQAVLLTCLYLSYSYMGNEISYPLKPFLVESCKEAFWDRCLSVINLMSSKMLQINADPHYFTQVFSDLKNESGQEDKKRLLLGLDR
Protocol: (§3) CDK kinase activity (IC50 values and inhibitory rate at single concentration) was measured using the kinase profiling services (Shanghai ChemPartner Co., Ltd). Compounds were sent to ChemPartner as a solution in DMSO at concentration of 10 mM.

[8] = target: CDK9/cyclinT1 (Homo sapiens, UniProt P50750); assay: CDK9/cyclinT1 Lance Ultra Assay, single concentration screen; assay type: biochemical; conditions: 50 nM, ATP concentration at Km, read-out: CDK9 inhibitory rate (%) @ 50nM
Chain of CDK9/cyclinT1 (P50750 whole entry): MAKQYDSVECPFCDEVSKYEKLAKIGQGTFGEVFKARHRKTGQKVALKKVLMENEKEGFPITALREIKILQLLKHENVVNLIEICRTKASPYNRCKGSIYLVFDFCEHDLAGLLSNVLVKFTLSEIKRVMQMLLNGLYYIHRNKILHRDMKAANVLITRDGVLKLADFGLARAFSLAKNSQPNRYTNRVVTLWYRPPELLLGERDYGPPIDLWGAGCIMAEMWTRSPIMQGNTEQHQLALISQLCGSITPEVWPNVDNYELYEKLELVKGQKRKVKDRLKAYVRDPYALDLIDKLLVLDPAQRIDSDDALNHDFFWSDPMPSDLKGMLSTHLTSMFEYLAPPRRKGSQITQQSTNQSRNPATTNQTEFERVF
Chain of CDK9/cyclinT1 (O60563 whole entry partner): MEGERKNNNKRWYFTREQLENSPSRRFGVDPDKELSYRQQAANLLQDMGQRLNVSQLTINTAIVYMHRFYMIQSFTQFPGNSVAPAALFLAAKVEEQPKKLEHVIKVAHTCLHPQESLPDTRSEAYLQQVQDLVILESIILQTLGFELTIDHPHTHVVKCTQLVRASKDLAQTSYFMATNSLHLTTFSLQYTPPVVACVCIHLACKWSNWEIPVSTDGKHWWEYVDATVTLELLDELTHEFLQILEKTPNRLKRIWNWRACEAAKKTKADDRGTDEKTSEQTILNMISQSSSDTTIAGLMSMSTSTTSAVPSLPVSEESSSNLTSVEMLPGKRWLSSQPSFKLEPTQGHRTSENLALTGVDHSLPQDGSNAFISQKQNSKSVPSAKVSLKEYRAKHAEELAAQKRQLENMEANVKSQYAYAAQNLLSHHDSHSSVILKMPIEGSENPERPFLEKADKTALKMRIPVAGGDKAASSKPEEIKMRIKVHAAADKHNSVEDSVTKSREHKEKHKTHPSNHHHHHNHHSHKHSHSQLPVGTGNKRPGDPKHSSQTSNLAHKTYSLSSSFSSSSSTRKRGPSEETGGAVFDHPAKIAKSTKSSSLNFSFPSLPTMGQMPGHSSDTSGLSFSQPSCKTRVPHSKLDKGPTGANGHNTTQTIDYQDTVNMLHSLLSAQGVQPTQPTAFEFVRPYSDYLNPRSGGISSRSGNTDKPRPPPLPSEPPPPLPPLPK
Protocol: as §3

[9] = system: MIA PaCa-2 cells; design: method as in PMID 33316409; conditions: previous study ref 23; cited from earlier work
[10] = target: T1, CDK1 (Homo sapiens, UniProt P06493); assay: CDK1 kinase IC50, Mobility shift assay; assay type: biochemical
T1 sequence (P06493 whole entry): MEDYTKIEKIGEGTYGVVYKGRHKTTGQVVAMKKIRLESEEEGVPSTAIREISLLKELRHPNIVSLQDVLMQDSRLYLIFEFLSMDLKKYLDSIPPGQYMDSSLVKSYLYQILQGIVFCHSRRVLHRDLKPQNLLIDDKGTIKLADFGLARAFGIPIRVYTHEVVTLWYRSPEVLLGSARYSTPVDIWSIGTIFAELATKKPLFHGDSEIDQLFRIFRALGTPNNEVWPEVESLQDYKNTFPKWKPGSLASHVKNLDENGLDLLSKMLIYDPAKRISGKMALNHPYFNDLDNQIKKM
T1 sequence (P14635 whole entry partner): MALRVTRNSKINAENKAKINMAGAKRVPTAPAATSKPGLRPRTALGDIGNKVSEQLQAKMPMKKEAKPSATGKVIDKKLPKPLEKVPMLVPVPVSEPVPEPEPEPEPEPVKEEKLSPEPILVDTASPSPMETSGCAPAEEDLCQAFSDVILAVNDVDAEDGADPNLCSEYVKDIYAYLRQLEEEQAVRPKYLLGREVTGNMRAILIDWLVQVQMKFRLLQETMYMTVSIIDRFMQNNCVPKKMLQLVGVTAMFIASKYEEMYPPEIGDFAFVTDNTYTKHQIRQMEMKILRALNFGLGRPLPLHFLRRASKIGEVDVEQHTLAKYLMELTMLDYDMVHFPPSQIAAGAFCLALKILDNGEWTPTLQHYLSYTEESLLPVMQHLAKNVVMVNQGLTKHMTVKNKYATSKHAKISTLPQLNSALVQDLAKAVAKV
Protocol: as §3

[11] = target: T2, CDK9 (Homo sapiens, UniProt P50750); assay: CDK9 kinase IC50, Mobility shift assay; assay type: biochemical
T2 sequence (P50750 whole entry): as the sequence (P50750 whole entry) above
T2 sequence (O60563 whole entry partner): as the sequence (O60563 whole entry partner) above
Protocol: as §3

[12] = target: T3, CDK2 (Homo sapiens, UniProt P24941); assay: CDK kinase screening at 1 μM, CDK2; assay type: biochemical; conditions: read-out: Inhibitory rate at 1μM: CDK2
Protocol: as §3

[13] = target: CDK6 (Homo sapiens, UniProt Q00534); assay: CDK kinase screening at 1 μM, CDK6; assay type: biochemical; conditions: read-out: Inhibitory rate at 1μM: CDK6
Protocol: as §3

[14] = target: T2, CDK9; assay: CDK kinase screening at 1 μM, CDK9; assay type: biochemical; conditions: read-out: Inhibitory rate at 1μM: CDK9
Protocol: as §3

[15] = target: T1, CDK1; assay: CDK kinase screening at 1 μM, CDK1; assay type: biochemical; conditions: read-out: Inhibitory rate at 1μM: CDK1
Protocol: as §3

[16] = target: T4, CDK4 (Homo sapiens, UniProt P11802); assay: CDK kinase screening at 1 μM, CDK4; assay type: biochemical; conditions: read-out: Inhibitory rate at 1μM: CDK4
T4 sequence (P11802 whole entry): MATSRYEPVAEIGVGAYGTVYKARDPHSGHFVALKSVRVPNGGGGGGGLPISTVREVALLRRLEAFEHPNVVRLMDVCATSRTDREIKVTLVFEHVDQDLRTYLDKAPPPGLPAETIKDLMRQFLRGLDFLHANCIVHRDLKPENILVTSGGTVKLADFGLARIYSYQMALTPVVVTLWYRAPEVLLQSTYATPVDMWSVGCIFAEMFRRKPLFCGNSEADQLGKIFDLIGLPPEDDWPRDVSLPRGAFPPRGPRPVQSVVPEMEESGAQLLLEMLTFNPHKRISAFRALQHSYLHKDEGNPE
T4 sequence (P30281 whole entry partner): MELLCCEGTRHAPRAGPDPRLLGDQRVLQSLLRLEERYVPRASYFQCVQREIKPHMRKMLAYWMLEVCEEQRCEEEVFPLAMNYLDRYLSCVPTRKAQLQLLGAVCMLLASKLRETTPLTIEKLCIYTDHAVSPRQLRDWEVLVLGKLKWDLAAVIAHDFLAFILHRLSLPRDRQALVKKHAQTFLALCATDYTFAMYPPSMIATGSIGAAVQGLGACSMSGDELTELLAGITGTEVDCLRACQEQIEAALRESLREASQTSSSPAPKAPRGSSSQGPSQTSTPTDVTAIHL
Protocol: as §3

[17] = target: CDK8 (Homo sapiens, UniProt P49336); assay: CDK kinase screening at 1 μM, CDK8; assay type: biochemical; conditions: read-out: Inhibitory rate at 1μM: CDK8
Protocol: as §3

[18] = target: T5, CDK7 (Homo sapiens, UniProt P50613); assay: CDK7 kinase IC50, Mobility shift assay; assay type: biochemical
T5 sequence (P50613 whole entry): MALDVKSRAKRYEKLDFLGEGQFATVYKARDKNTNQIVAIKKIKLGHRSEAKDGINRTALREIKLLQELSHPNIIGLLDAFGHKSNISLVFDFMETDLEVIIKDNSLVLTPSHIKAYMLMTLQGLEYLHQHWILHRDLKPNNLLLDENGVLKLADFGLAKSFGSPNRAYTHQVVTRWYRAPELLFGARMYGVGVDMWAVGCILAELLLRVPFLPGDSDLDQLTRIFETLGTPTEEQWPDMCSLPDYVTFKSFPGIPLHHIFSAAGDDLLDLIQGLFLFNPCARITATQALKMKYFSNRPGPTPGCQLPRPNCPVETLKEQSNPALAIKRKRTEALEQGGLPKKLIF
T5 sequence (P51946 whole entry partner): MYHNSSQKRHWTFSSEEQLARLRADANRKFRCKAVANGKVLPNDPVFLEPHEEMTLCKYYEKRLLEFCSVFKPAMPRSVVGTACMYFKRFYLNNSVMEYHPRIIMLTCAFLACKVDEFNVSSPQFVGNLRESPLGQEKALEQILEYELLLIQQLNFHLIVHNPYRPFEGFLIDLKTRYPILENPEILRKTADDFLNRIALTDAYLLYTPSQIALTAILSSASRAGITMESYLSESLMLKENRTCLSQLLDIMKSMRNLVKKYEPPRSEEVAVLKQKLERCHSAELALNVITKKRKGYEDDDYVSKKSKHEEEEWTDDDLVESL
T5 sequence (P51948 whole entry partner): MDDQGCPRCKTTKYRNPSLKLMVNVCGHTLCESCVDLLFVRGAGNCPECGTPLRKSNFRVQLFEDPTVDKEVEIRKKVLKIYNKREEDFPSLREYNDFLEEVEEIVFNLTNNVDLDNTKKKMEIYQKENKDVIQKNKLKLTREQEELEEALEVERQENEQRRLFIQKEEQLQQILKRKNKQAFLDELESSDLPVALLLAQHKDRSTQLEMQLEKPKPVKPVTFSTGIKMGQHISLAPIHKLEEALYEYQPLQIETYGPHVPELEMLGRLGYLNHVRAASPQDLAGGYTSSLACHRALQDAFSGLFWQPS
Protocol: as §3

[19] = target: CDK3 (Homo sapiens, UniProt Q00526); assay: CDK kinase screening at 1 μM, CDK3; assay type: biochemical; conditions: read-out: Inhibitory rate at 1μM: CDK3
Chain of CDK3 (Q00526 whole entry): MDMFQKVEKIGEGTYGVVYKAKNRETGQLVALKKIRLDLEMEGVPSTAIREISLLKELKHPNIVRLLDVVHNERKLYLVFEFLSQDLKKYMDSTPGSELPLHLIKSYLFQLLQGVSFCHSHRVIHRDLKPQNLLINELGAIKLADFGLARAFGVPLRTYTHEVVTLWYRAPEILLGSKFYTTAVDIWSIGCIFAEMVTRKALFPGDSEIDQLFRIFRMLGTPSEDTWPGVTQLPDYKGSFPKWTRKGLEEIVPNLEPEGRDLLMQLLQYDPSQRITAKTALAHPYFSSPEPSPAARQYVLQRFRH
Chain of CDK3 (P24864 whole entry partner): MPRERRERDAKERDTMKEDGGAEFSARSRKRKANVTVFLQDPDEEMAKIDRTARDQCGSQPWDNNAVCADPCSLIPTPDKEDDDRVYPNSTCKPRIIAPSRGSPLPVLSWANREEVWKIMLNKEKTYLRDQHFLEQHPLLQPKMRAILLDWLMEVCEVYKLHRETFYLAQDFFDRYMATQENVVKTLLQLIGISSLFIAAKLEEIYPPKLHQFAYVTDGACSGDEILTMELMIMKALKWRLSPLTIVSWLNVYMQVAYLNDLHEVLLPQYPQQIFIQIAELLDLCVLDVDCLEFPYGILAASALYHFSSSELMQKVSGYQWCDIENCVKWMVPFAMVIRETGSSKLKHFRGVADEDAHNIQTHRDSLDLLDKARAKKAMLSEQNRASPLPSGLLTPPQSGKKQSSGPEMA
Protocol: as §3

[20] = target: T5, CDK7; assay: CDK kinase screening at 1 μM, CDK7; assay type: biochemical; conditions: read-out: Inhibitory rate at 1μM: CDK7
Protocol: as §3

[21] = target: T3, CDK2; assay: CDK2 kinase IC50, Mobility shift assay; assay type: biochemical
Protocol: as §3

[22] = target: T4, CDK4; assay: CDK4 kinase IC50, Mobility shift assay; assay type: biochemical
Protocol: as §3

Nc1ccn([C@@H]2O[C@H](CO)[C@@H](O)C2(F)F)c(=O)n1 [GCTB, gemcitabine, reference compound]
tumour growth inhibition (TGI) [1]: 36% | IC50 [2]: 0.956 ± 0.14 µM | pathological change in main organs (H&E) [3]: no obvious pathological change | IC50 [4]: 0.388 ± 0.119 µM | IC50 [5]: 5.79 ± 4.21 µM | IC50 [6]: 1.04 ± 0.27 µM

Cc1cc(C)nc(NS(=O)(=O)c2ccc(Nc3ncc4cc(C(=O)N(C)C)n(C5CCCC5)c4n3)cc2)n1 [compound 1]
inhibition at 1 µM [7]: 72.1% | inhibition at 0.05 µM [8]: 98.6% | IC50 [2]: 2.6 ± 0.997 µM | effect on cell cycle [9]: G2-arrested effect | IC50 [10]: 516 nM | IC50 [11]: 5.6 nM | inhibition at 1 µM [12]: 94.4% | inhibition at 1 µM [13]: 78.1% | inhibition at 1 µM [14]: 99% | inhibition at 1 µM [15]: 65.2% | inhibition at 1 µM [16]: 89.2% | IC50 [4]: 0.409 ± 0.06 µM | inhibition at 1 µM [17]: 0.8% | IC50 [18]: > 10000 nM | IC50 [5]: 3.68 ± 2.5 µM | inhibition at 1 µM [19]: 84.5% | inhibition at 1 µM [20]: 5.3% | IC50 [21]: 91.6 nM | IC50 [6]: 4.98 ± 2.68 µM | IC50 [22]: 89 nM

— paper PMC9858427, “Design, synthesis and biological evaluation of 2-((4-sulfamoylphenyl)amino)-pyrrolo[2,3-d]pyrimidine derivatives as CDK inhibitors” (Journal of Enzyme Inhibition and Medicinal Chemistry, 2023)
